Assay results taken from patent US5665735A, “Unbridged bis-aryl carbinol derivatives compositions and methods of use” (Schering Corporation, priority 1995, dated 1997).
pIC50: −log10 of the molar value. Like-named read-outs stand apart in the source and are kept apart here.

Columns and labels:
[1] = test system: histamine-induced bronchospasm; test: Agonist-induced bronchospasm in guinea pigs, histamine (in vivo, oral); design: species or system guinea pig (male Hartley)
Description: (§1) In Vivo Studies: Agonist-Induced Responses--Spasmogen-Induced Bronchospasm in Guinea Pigs
(§2) Male Hartley guinea pigs (450-550 g) were obtained from Charles River Breeding Laboratories. The animals were fasted overnight and the following day were anesthetized with 0.9 mL/kg i.p. of dilaurethane (containing 0.1 g/mL diallylbarbituric acid, 0.4 g/ml ethylurea and 0.4 g/ml urethane). The left jugular vein was cannulated for the administration of compounds. The trachea was cannulated and the animals were ventilated by a rodent respirator at 55 strokes/min. with a stroke volume of 4 mL. A side arm to the tracheal cannula was connected to a pressure transducer to obtain a continuous measure of inflation pressure. Bronchoconstriction was measured as the percent increase in inflation pressure that peaked within 5 min. after challenge with spasmogen. […] Each animal was challenged with only a single spasmogen. The effect of a compound on the bronchospasm is expressed as a percent inhibition of the increase in inflation pressure compared to the, increase in a control group.

PAF-induced bronchospasm = test: Agonist-induced bronchospasm in guinea pigs, PAF (in vivo, oral); design: species or system guinea pig (male Hartley)
Description: as §1, §2

[2] = test system: PAF-induced platelet aggregation; test: Platelet aggregation assay: inhibition of platelet aggregation induced by PAF (in vitro); type: cell-based; conditions: Homo sapiens; for pIC50: read-out: PAF antagonism (in vitro) IC50; for inhibition at 0.12 µM: concentration 0.12 μM; for inhibition at 0.25 µM: concentration 0.25 μM; for inhibition at 0.5 µM: concentration 0.5 μM; for inhibition at 0.125 µM: concentration 0.125 μM; for inhibition at 5 µM: concentration 5 μM; for inhibition at 50 µM: concentration 50 μM; for inhibition at 2.5 µM: concentration 2.5 μM
Description: A. In Vitro Studies--Platelet Aggregation Assay
Platelet-activating factor (PAF) causes aggregation of platelets by a receptor-mediated mechanism. Therefore, PAF-induced platelet aggregation provides a simple and convenient assay to screen compounds for PAF antagonism.
Blood was centrifuged at 110×g for 15 min. and the supernatant platelet-rich plasma (PRP) carefully transferred into a polypropylene tube. Platelet-poor-plasma (PPP) was prepared by centrifuging PRP at 12,000×g for 2 min. PRP was used within 3 hr. of drawing the blood.
PAF was dissolved in chloroform:methanol (1:1, v/v) at a concentration of 2 mg/mL and stored at -70° C. An aliquot of this solution was transferred to a polypropylene tube and […] under a flow of nitrogen gas. […] The solution was sonicated for 5 min. This stock solution was further diluted to appropriate concentrations in Hepes-saline-BSA buffer. Collagen and adenosine diphosphate (ADP) were purchased as solutions. Test compounds were initially dissolved in dimethyl sulfoxide (DMSO) at a concentration of 50 mM and then further diluted in Hepes-saline-BSA buffer to achieve appropriate concentrations.
When an aggregating agent such as PAF is added to PRP, platelets aggregate. An aggregometer quantifies this aggregation by measuring and comparing light (infra-red) transmission through PPP and PRP. Aggregation assays were performed using a dual-channel aggregometer. PRP (0.45 ml) in aggregometer cuvettes was continually stirred (37° C.). Solutions (50 μL) of test compounds or vehicle were added to the PRP and, after incubation for 2 min., 10-15 μL aliquots of PAF solution were added to achieve a final concentration of 1-5×10^-8 M. In different experiments the aggregatory response was kept within a set limit by varying the concentration of PAF. Incubations were continued until the increase in light transmission reached a maximum (usually 2 min.). This increase in light transmission reflecting platelet aggregation is transmitted to a computer. The computer calculates the slope of transmission change, thus providing the rate of aggregation. Values for inhibition were calculated by comparing rates of aggregation obtained in the absence and the presence of the compound. For each experiment, a standard PAF antagonist such as 8-chloro-6,11-dihydro-11-(1-acetyl-4-piperidylidene)-5H-benzo[5,6]cyclohepta[1,2-b]pyridine was used as a positive control.
Compounds that inhibit PAF-induced aggregation were tested against several other aggregating agents including collagen (0.2 mg/ml) and ADP (2 μM).

| Structure (SMILES) | PAF agonist bronchospasm % inhibition (PAF-induced bronchospasm; 3 mg/kg) [%] | inhibition at 0.25 µM [2] [%] | inhibition at 0.5 µM [2] [%] | inhibition at 5 µM [2] [%] | inhibition at 50 µM [2] [%] | other results |
| --- | --- | --- | --- | --- | --- | --- |
| CCOC(=O)N1CCC(=C2c3ccc(Cl)cc3CCc3cccnc32)CC1 [Compound A, reference compound] |  |  |  |  |  | Histamine agonist bronchospasm % inhibition ([1]; 1 mg/kg): > 50%; PAF agonist bronchospasm % inhibition (PAF-induced bronchospasm; 10 mg/kg): < 50%; pIC50 [2]: < 4.30 |
| CC(=O)N1CCC(=C2c3ccc(Cl)cc3CCc3cccnc32)CC1 [Compound B, reference compound] | 4 |  |  |  |  | Histamine agonist bronchospasm % inhibition ([1]; 3 mg/kg): 48%; pIC50 ([2]; in vitro, known compounds, for purposes of comparison): 6.21 |
| O=C(c1cc[n+]([O-])cc1)N1CCC(=C2c3ccc(Cl)cc3CCc3cccnc32)CC1 [Compound C, reference compound] |  |  |  |  |  | PAF agonist bronchospasm % inhibition (duration) (PAF-induced bronchospasm; 5 mg/kg, time 4 (unit not given)): 37%; PAF agonist bronchospasm % inhibition (duration) (PAF-induced bronchospasm; 5 mg/kg, time 8 (unit not given)): 12% |
| CC(=O)N1CCC(=C2c3ccc(Cl)cc3CCc3cccnc32)CC1 [Compound D, reference compound] |  |  |  |  |  | PAF agonist bronchospasm % inhibition (duration) (PAF-induced bronchospasm; 15 mg/kg, time 4 (unit not given)): 61%; PAF agonist bronchospasm % inhibition (duration) (PAF-induced bronchospasm; 15 mg/kg, time 8 (unit not given)): 32% |
| O=C(c1cc[n+]([O-])cc1)N1CCC(C(O)(c2ccccn2)c2ccccn2)CC1 [Formula 1.0A1] | 93 | 68 | 97 |  |  | inhibition at 0.12 µM [2]: 28% |
| O=C(c1cc[n+]([O-])cc1)N1CCC(C(O)(c2ccc(Cl)cc2)c2ccccn2)CC1 (centres unmarked) [Formula 1.0A3] | 87 | 69 | 88 | 95 | 92 | inhibition at 0.063 µM ([2]; concentration 0.063 μM): 41%; inhibition at 0.125 µM [2]: 53% |
| [O-][n+]1ccc(CN2CCC(C(O)(c3ccccc3)c3cccs3)CC2)cc1 (centres unmarked) [Formula 1.0A5] | 20 | 41 | 59 |  |  | inhibition at 0.12 µM [2]: 35%; inhibition at 1.2 µM ([2]; concentration 1.2 μM): 81%; inhibition at 2.5 µM [2]: 91% |
| O=C(c1cc[n+]([O-])cc1)N1CCC(C(O)(c2ccc(Cl)cc2)c2cccs2)CC1 (centres unmarked) [Formula 1.0A8] | 0 |  | 74 | 100 | 89 | inhibition at 1.25 µM ([2]; concentration 1.25 μM): 26%; inhibition at 2.5 µM [2]: 55% |
| [O-][n+]1ccc(CN2CCC(C(O)(c3ccc(Cl)cc3)c3cccs3)CC2)cc1 (centres unmarked) [Formula 1.0A9] |  |  |  | 24 | 100 |  |
| O=C(c1cc[n+]([O-])cc1)N1CCC(C(O)(c2ccc(Cl)cc2)c2nccs2)CC1 (stereo not drawn) [Formula 1.0A10, α-(4-chlorophenyl)-1-(4-pyridinylcarbonyl)-α-(2-thiazolyl)-4-piperidinemethanol N^1-oxide] | 93 | 67 | 88 | 92 | 86 | Histamine agonist bronchospasm % inhibition ([1]; 10 mg/kg): 12%; PAF agonist bronchospasm % inhibition (duration) (PAF-induced bronchospasm; 4 mg/kg, time 6 (unit not given)): 99%; inhibition at 0.125 µM [2]: 52% |
| [O-][n+]1ccc(CN2CCC(C(O)(c3ccc(Cl)cc3)c3nccs3)CC2)cc1 (centres unmarked) [Formula 1.0A11] |  |  | 7 | 76 | 83 |  |
| O=C(c1cc[n+]([O-])cc1)N1CCC(C(O)(c2ccccn2)c2nccs2)CC1 (centres unmarked) [Formula 1.0A12] |  | 47 | 58 | 98 | 100 |  |
